# Results published in paper PMC10888717, “Identification of Novel Non-Nucleoside Inhibitors of Zika Virus NS5 Protein Targeting MTase Activity” (International Journal of Molecular Sciences, 2024).
# Like-named read-outs stand apart in the source and are kept apart here.
# Columns and labels:
# ZIKV NS5 MTase = target: T1, ZIKV NS5 MTase (Zika virus, UniProt A0A024B7W1); assay: ZIKV NS5 MTase radioactive filter-binding assay (2′-O-MTase activity); assay type: biochemical; conditions: at least two experiments; for IC50: read-out: IC50 (half-maximal inhibitory enzymatic concentration)
# T1 construct: KJ776791.2, aa 4–278; His6 (N); made in house; host or cells: Escherichia coli T7 Express Iq
# T1 sequence (A0A024B7W1 2524-2798): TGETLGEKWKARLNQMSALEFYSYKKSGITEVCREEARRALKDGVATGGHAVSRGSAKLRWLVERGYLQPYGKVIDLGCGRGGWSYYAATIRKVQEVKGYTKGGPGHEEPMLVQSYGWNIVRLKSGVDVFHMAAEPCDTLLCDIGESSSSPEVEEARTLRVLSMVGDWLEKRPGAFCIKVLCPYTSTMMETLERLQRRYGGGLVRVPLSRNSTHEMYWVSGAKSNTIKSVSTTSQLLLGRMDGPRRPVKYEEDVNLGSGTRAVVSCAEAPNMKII
# Description: Selected compounds were evaluated in enzymatic inhibition assays against both ZIKV and DENV 2′-O-MTase activity (For details, see Figure S3 in Supplementary Materials). The screening of compounds at a concentration of 50 µM highlighted a higher inhibitory activity against ZIKV MTase. We thus focused our efforts on ZIKV and determined the IC50 values against ZIKV MTase.
# Expression and purification of ZIKV NS5 MTase: The coding sequence of the ZIKV NS5 MTase domain (strain H/PF/2013, GenBank accession no. KJ776791.2, aa 4–278) was synthesized by Genscript and cloned into a pQE30 vector (Qiagen, Hilden, Germany) with an N-terminal His6 tag. The protein was expressed and purified following the procedures described in Coutard et al..
# Briefly, after expression in Escherichia coli T7 Express Iq (New England BioLabs) in Terrific Broth at 17 °C overnight, bacterial pellets were resuspended in lysis buffer (50 mM Tris-HCl [pH 8], 300 mM NaCl, 5% glycerol, 0.1% Triton, 10 μg/mL DNase I, 2 tablets of EDTA-free antiprotease cocktail [Roche] and 0.25 mg/mL lysozyme). Following cell lysis and clarification, the protein was purified by affinity on immobilized metal affinity chromatography (IMAC, His prep column [GE Healthcare]), followed by size exclusion chromatography (Superdex S75 HR 16/20 column [GE Healthcare]). The NS5-MTase was concentrated and stored at −20 °C after adding glycerol to a final concentration of 40%.
# Filter-binding assay: The transfer of tritiated methyl from ^[3H]SAM onto RNA substrate was monitored by a filter-binding assay (FBA), performed according to the method described previously. FBA was carried out in a reaction mixture [40 mM Tris-HCl (pH 8.0), 1 mM DTT, 2 μM SAM, and 0.1 μM 3H-SAM (Perkin Elmer, Shelton, CT, USA)] in the presence of 0.7 μM synthetic ^7mGpppAC4 and ZIKV NS5 MTase (500 nM). The enzyme was first mixed with an increasing concentration of inhibitors, previously suspended in dimethyl sulfoxide (DMSO), before the addition of RNA substrate and SAM, and then incubated at 30 °C. The final DMSO concentration in reactions was 5%. Reaction mixtures were stopped after 30 min incubation by their 10-fold dilution in ice-cold water. Samples were transferred to diethylaminoethyl (DEAE) filtermat (Perkin Elmer, Shelton, CT, USA) using a Filtermat Harvester (Packard Instruments, Meriden, CT, USA). The RNA-retaining mats were washed twice with 10 mM ammonium formate pH 8.0, twice with water, and once with ethanol before drying. They were soaked with scintillation fluid (Perkin Elmer, Shelton, CT, USA), and 3H-methyl transfer to the RNA substrates was determined using a Wallac MicroBeta TriLux Liquid Scintillation Counter (Perkin Elmer, Shelton, CT, USA). For IC50 measurements, values were normalized and fitted with Prism (GraphPad software version 10.1.1) using the following equation: Y = 100/(1 + ((X/IC50) ^ Hillslope)).
# [1] = Metabolic stability in human liver microsomes; assay type: in vitro ADME; conditions: 1 h, 37 °C, three experiments
# Description: The metabolic stability was investigated by incubating selected compounds with human liver microsomes (HLMs) for 1 h at 37 °C. The percentage of non-metabolized compounds and metabolites was analyzed by HPLC-UV-MS. […] HPLC analysis confirmed the presence of the oxidated metabolites in small percentages.
# (§1) For the ADME property determination, an Agilent 1260 Infinity HPLC-DAD interfaced with an Agilent MSD 6130 (Agilent Technologies, Palo Alto, CA, USA) was used. Chromatographic conditions were optimized using a Phenomenex Kinetex C18-100 Å column (150 × 4.6 mm) with 5 µm particle size and gradient elution with a binary solution (eluent A: H2O; eluent B: ACN; both eluents were acidified with formic acid 0.1% v/v) at room temperature. The LC analyses started with 5% of B (from t = 0 to t = 1 min), then B was increased to 95% (from t = 1 to t = 10 min) and then kept at 95% (from t = 10 to t = 19 min) and finally returned to initial conditions in 1.0 min. The flow rate was 0.6 mL/min and the injection volume was 10 µL.
# The test was performed as previously reported with minor modifications. Each compound was dissolved in DMSO and phosphate buffer (0.025 M, pH 7.4), and human liver microsomes (0.2 mg/mL) and a NADPH-regenerating system in MgCl2 48 mM were added to a final volume of 500 µL. This solution was incubated for 1 h at 37 °C and then the reaction was stopped and quenched using 1 mL of ACN. The reaction mixtures were then centrifuged (4000 rpm for 10 min) and the supernatant was taken, dried under nitrogen flow, and then resuspended in 100 µL of methanol. The parent drug and metabolites were subsequently determined using the chromatographic conditions described above. The percentage of non-metabolized compounds was calculated by comparison with reference solutions. The determination of metabolic stability for each compound was performed in three independent experiments.
# [2] = Cytotoxicity assay (MTT) on Vero E6 cells; assay type: cell-based; conditions: African green monkey
# Description: Compounds characterized by the best anti-enzymatic activity were tested against ZIKV in cellular assays. VERO E6 cells were infected with ZIKV at a multiplicity of infection (M.O.I.) of 0.1, and their activities were evaluated by a plaque reduction assay three days post-infection. Ribavirin was used as a reference compound. As reported in Table 2, compound 1, identified in the first screening, was unable to inhibit viral replication up to a 100 μM concentration. […] The cytotoxicity of the series was determined on the same cell line. […] Their selectivity indexes were calculated as the ratio between CC50 and IC50 values; the results highlight their promising safety profile.
# Monolayers of 2.5 × 10^4 Vero E6 cells per well were grown in flat-bottom 96-well culture plates and allowed to adhere overnight. Then, when the cell layers were confluent, the medium was removed, the wells were washed twice with PBS, treated with 100 µL of DMEM with 10 µL DMSO alone (cell positive control) or with various concentrations of anti-NS5 inhibitory compounds under study (compound final concentrations of 100, 10, 1, 0.1, and 0.01 μM), and incubated for 3 days at 37 °C in a CO2. After treatment, an MTT (3-(4,5-dimethylthiazol-2-yl)-2,5-diphenyltetrazolium bromide) kit (Roche, Milan, Italy) was used according to the supplier’s instructions, and the absorbance of each well was determined using a microplate spectrophotometer at a wavelength of 570 nm. Cytotoxicity was calculated by dividing the average optical density of treated samples by the average of DMSO-treated samples (cell positive control).
# ZIKV [3] = assay: ZIKV inhibitory viral plaque reduction assay in Vero E6 cells; assay type: cell-based, Zika virus; conditions: for IC50: Zika virus
# [4] = Stability test in human plasma; assay type: in vitro ADME; conditions: pH 7.4, 37 °C, up to 24 h, read-out: Plasma Stab. (T1/2, h ± SD) (converted)
# Description: Finally, compounds were incubated in human plasma at 37 °C for 24 h. […] Taken together, stability studies confirmed that the series is suitable for further development.
# as §1
# A stock solution of the target compound in DMSO (2 mM) was incubated in a test tube with pooled human plasma (55.7 mg protein/mL) and HEPES buffer (25 mM, 140 mM NaCl pH 7.4) up to a final volume of 1.0 mL. The mixture was incubated at 37 °C, and at set time points (0.0, 0.5, 1, 4, 8, 24 h), samples of 50 µL were taken, mixed with 400 µL of ACN to stop the reaction of plasmatic esterases, and centrifuged at 5000 rpm for 15 min. The supernatant was removed and analyzed using the LC-UV/MS method previously described. The half-life (t½) was calculated according to the following equation: t½=ln 2/k where k represents the substrate elimination constant. For each compound, the determination was performed in three independent experiments.
# DENV MTase = DENV MTase enzymatic inhibition assay; assay type: biochemical, Dengue virus; conditions: read-out: IC50 against DENV MTase
# From the text: Firstly, a pharmacophoric model was developed taking into consideration the most populated interactions (Figure 1C). The pharmacophore was used to perform a first screening, choosing molecules matching the pharmacophore features representing the interactions of the SAM adenine group and at least one of the two groups of features representing the interaction of SAM methionine moieties, with the aim of identifying compounds able to form interactions within both the adenine and the methionine subpockets of the SAM-binding site. The obtained results were then subjected to docking analysis using Glide XP, Glide SP, and GOLD (using the GoldScore fitness function). At the end of each docking procedure, a post-docking filter was applied to check whether the desired pharmacophoric interactions were maintained in the predicted binding modes of the docked compounds. Only the ligands for which a common binding mode matching the desired pharmacophore features was predicted by all the docking software were retained and then subjected to clustering and visual inspection. […]
# Selected compounds were evaluated in enzymatic inhibition assays against both ZIKV and DENV 2′-O-MTase activity (For details, see Figure S3 in Supplementary Materials). […] We thus focused our efforts on ZIKV and determined the IC50 values against ZIKV MTase.
# ZIKV [5] = conditions: cited from earlier work
# [6] = VERO E6 cells, MTT, 3 days, read-out: CC50 ± SD (half-maximal cytotoxic concentration)
# [7] = Vero C1008, read-out: IC50 ± SD (half-maximal inhibitory concentration, ZIKV plaque reduction)
compound,measurement,setting,value
NC(=O)c1ccc(NC(=O)c2cc3cc([N+](=O)[O-])ccc3s2)cc1 [Compound 5],IC50,ZIKV NS5 MTase,37 µM
CN1C(=O)c2ccc(NC(=O)c3cc4ccccc4s3)cc2C1=O [Compound 14],IC50,ZIKV NS5 MTase,31 µM
O=C(Nc1ccc2c(c1)C(=O)NC2)c1cc2ccccc2s1 [Compound 13],IC50,ZIKV NS5 MTase,46 µM
CNC(=O)c1ccc(NC(=O)c2cc3ccccc3s2)cc1 [Compound 11],IC50 (half-maximal inhibitory enzymatic concentration),ZIKV NS5 MTase,completely abolished the activity
same,IC50,ZIKV NS5 MTase,> 100 µM
NS(=O)(=O)c1cccc(NC(=O)c2cc3cc([N+](=O)[O-])ccc3s2)c1 [Compound 4],IC50,ZIKV NS5 MTase,34 µM
CN1C(=O)c2ccc(NC(=O)c3cc4cc([N+](=O)[O-])ccc4o3)cc2C1=O [Compound 8],IC50,ZIKV NS5 MTase,22.6 µM
same,HLM Stab.% ± SD (percentage of non-metabolized compound),[1],96.93 ± 0.57%
same,CC50 at 3 days,[2]; [6],> 100 µM
same,"SI (Selectivity Index, ratio between CC50 and IC50)",ZIKV [3]; VERO E6 cells,>52.63
same,IC50,ZIKV [3]; [7],1.9 ± 0.3 µM
same,half-life,[4],439 ± 10.2 min
CN1C(=O)c2ccc(NC(=O)c3sc4ccccc4c3Cl)cc2C1=O [Compound 16],IC50,ZIKV NS5 MTase,13.1 µM
same,CC50 at 3 days,[2]; [6],> 100 µM
same,"SI (Selectivity Index, ratio between CC50 and IC50)",ZIKV [3]; VERO E6 cells,>38.46
same,IC50,ZIKV [3]; [7],2.6 ± 0.2 µM
O=C(Nc1ccc2c(c1)C(=O)NC2=O)c1cc2cc([N+](=O)[O-])ccc2s1 [Compound 1],IC50,ZIKV NS5 MTase,53 µM
same,IC50,DENV MTase,69 µM
same,CC50 at 3 days,[2]; [6],> 100 µM
same,IC50,ZIKV [3]; [7],> 100 µM
CN1C(=O)c2ccc(NC(=O)c3cc4ccccc4o3)cc2C1=O [Compound 9],IC50 (half-maximal inhibitory enzymatic concentration),ZIKV NS5 MTase,completely inactive
same,IC50,ZIKV NS5 MTase,> 100 µM
CCN(CC)CCCC(C)Nc1ccnc2cc(Cl)ccc12 (stereo not drawn) [chloroquine],EC50,ZIKV [5]; read-out: in vitro EC50 against ZIKV,~5 µM
CNC(=O)c1cccc(NC(=O)c2cc3ccccc3s2)c1 [Compound 12],IC50 (half-maximal inhibitory enzymatic concentration),ZIKV NS5 MTase,completely abolished the activity
same,IC50,ZIKV NS5 MTase,> 100 µM
NC(=O)c1ccc(NC(=O)c2cc3ccccc3s2)cc1 [Compound 10],IC50,ZIKV NS5 MTase,36 µM
"NC(=O)c1ncn([C@@H]2O[C@H](CO)[C@@H](O)[C@H]2O)n1 [ribavirin, 1-β-d-Ribofuranosyl-1,2,4-Triazole-3-Carboxamide, reference compound]",CC50 at 3 days,[2],100 ± 14 µM
same,EC50 against ZIKV,ZIKV [5],high micromolar range
same,"SI (Selectivity Index, ratio between CC50 and IC50)",ZIKV [3]; VERO E6 cells,1.05
same,IC50,"ZIKV [3]; Vero C1008, VERO E6 cells, ZIKV M.O.I. 0.1, at least two experiments, read-out: IC50 ± SD (half-maximal inhibitory concentration, ZIKV plaque reduction)",95.5 ± 0.6 µM
CN1C(=O)c2ccc(NC(=O)c3cc4cc(Cl)ccc4s3)cc2C1=O [Compound 15],IC50,ZIKV NS5 MTase,14.2 µM
same,HLM Stab.% ± SD (percentage of non-metabolized compound),[1],98.57 ± 0.07%
same,CC50 at 3 days,[2]; [6],> 100 µM
same,"SI (Selectivity Index, ratio between CC50 and IC50)",ZIKV [3]; VERO E6 cells,>71.43
same,IC50,ZIKV [3]; [7],1.4 ± 0.3 µM
same,half-life,[4],> 1440 min
O=C(Nc1ccc2c(c1)C(=O)NC2)c1cc2cc([N+](=O)[O-])ccc2s1 [Compound 2],IC50,ZIKV NS5 MTase,20 µM
Cc1cccc2cc(C(=O)Nc3ccc4c(c3)C(=O)N(C)C4=O)sc12 [Compound 20],IC50,ZIKV NS5 MTase,18.9 µM
same,HLM Stab.% ± SD (percentage of non-metabolized compound),[1],98.40 ± 0.12%
same,CC50 at 3 days,[2]; [6],> 100 µM
same,"SI (Selectivity Index, ratio between CC50 and IC50)",ZIKV [3]; VERO E6 cells,>15.15
same,IC50,ZIKV [3]; [7],6.6 ± 0.5 µM
same,half-life,[4],> 1440 min
Cc1ccc2sc(C(=O)Nc3ccc4c(c3)C(=O)N(C)C4=O)cc2c1 [Compound 19],IC50,ZIKV NS5 MTase,40 µM
O=C(O)c1ccc(NC(=O)c2cc3cc([N+](=O)[O-])ccc3s2)cc1 [Compound 6],IC50,ZIKV NS5 MTase,50 µM
CN1C(=O)c2ccc(NC(=O)c3cc4cc([N+](=O)[O-])ccc4s3)cc2C1=O [Compound 3],IC50,ZIKV NS5 MTase,16.6 µM
same,CC50 at 3 days,[2]; [6],> 100 µM
same,"SI (Selectivity Index, ratio between CC50 and IC50)",ZIKV [3]; VERO E6 cells,>3.49
same,IC50,ZIKV [3]; [7],28.6 ± 1.3 µM
O=C(Nc1ccccc1)c1cc2cc([N+](=O)[O-])ccc2s1 [Compound 7],IC50,ZIKV NS5 MTase,57 µM
CN1C(=O)c2ccc(NC(=O)c3cc4c(Cl)cccc4s3)cc2C1=O [Compound 18],IC50,ZIKV NS5 MTase,100 µM
